Positions of bridges follow the written chain, without caps; N, C: chain ends. Non-standard residues stand in square brackets, D forms with d. No end group written: not given here. Nle = CCCC[C@H](N)C(=O)O
What was measured:
conscious rabbits = assay: Blood pressure and heart rate in conscious rabbits, intravenous infusion dose-response (Example 8); conditions: for recovery of MAP, in words: 2 hours after infusion; for MAP at final dose / Recovery (MAP) / Recovery Delta SED (MAP) / Treatment Effect, change of mean blood pressure during the infusion: Table 10B; for Recovery (MAP) / Recovery Delta SED (MAP): after a 2 hour recovery period; for Treatment Effect, change of mean blood pressure during the infusion: final dose, groups 2B and 2C
[1] = tested on: denuded aortic rings, GC A receptor; assay: Relaxation of noradrenaline constricted endothelium-denuded aortic rings (Example 11); design: species or system rat; conditions: GC-A mediated
Method: Male Sprague Dawley rats were killed and the descending thoracic aorta rapidly removed and flushed with physiological solution. After being cleared of adhering fat and connective tissue, 5 mm rings were mounted under 10 g resting tension, between two stainless steel hooks, in organ baths (37° C.) containing carbogenated (95% O2 and 5% CO2) physiological salt solution of the following composition (mM): NaCl, 118.4; NaHCO3, 25; glucose, 11; KCl, 4.7; MgSO4, 1.2; KH2PO4, 1.2 and CaCl2, 2.5. The lower hook was attached to a tissue holder and the upper hook to a force displacement transducer (Grass FTO3). Where indicated endothelial cells were removed by gentle rubbing of the intimal surface with a wire. To confirm the presence or absence of endothelial cells, tissues were precontracted with a sub-maximal concentration of phenylephrine (0.3 μM) and the response to acetylcholine (ACh, 10 μM) observed. Ach-induced relaxation greater than 80% of maximum indicated the presence of endothelium; whereas Ach-induced relaxation less than 10% indicated the absence of endothelium. Ring preparations under resting tension were conditioned by two contraction/relaxation cycles with 40 mM KCl, contracted by a third application of 40 mM KCl and then relaxed with different doses of the venom peptides. Responses were expressed as a percentage relaxation of the precontraction by KCl.
In addition to the peptides tested in example 3, a series of 13 analogs corresponding to the 2a, 2b and 2c grouping of peptides were examined for their ability to dilate noradrenaline constricted aortic rings. The degree of constriction was expressed as a percentage of the KCl induced constriction. The aortic rings were prepared in a manner similar to the method described in example 3. […]. In each case there were at least 3 separate aortic rings tested per peptide and all were denuded of endothelium to ensure responses were confined to the GC A receptor.

Substance	recovery of MAP, in words (conscious rabbits)	MAP at final dose (conscious rabbits)	Recovery (MAP) (conscious rabbits)	Recovery Delta SED (MAP) (conscious rabbits)	Treatment Effect, change of mean blood pressure during the infusion (conscious rabbits)	Mean relaxation SEM of denuded aortic rings expressed as % of KCl response [1]
SDSKIGNGCFGFPLDRIGSVSGLGCNRInQNPPKKFSGE (SDSKIGNGCFGFPLDRIGSVSGLGCNRI[Nle]QNPPKKFSGE; disulfide 9-25 (inferred); ends not checked) [TNPc Nle]	partially recovered	53.4 mm Hg	64.5 mm Hg	11.0 ± 3.0 mm Hg	−13.6 mm Hg	61.0 ± 2.5%
SDSKISKGCFGFPLDRIGSVSGLGCNRIMQNPPKKFSGE (A portion of a natriuretic peptide) [TNPc K7S6]	did not recover after 2 hours	60.3 mm Hg	64.2 mm Hg	3.9 ± 2.6 mm Hg	−12.6 mm Hg	43.8 ± 4.3%

— patent US8058242B2, “Chimeric proteins with natriuretic activity” (The University of Queensland, priority 2004, dated 2011)
